From patent US20110287100A1, “Galenic Formulations of Organic Compounds” (priority 2009, published 2011)
Like-named read-outs stand apart in the source and are kept apart here.

Assays:
[1] = Pharmacokinetics in pediatric patients, open label multiple dose study; settings: human, in vivo; for AUC: read-out: AUCtau, Mean; for Tmax: read-out: Tmax, Median; for half-life: read-out: T½, Mean (converted)
Method: An open label, multiple dose pharmacokinetic and pharmacodynamic study was performed in 24 pediatric patients, ages 6-17 years. […] Blood samples were collected on days one and eight and pharmacokinetics were assessed using a non-compartmental analysis approach.

Water solubility = type: physicochemical; settings: between pH 1 and 8
[2] = 2 mg/kg, 6-11 yrs old, 2 mg/kg, Day 1
[3] = 2 mg/kg, 6-11 yrs old, 2 mg/kg, Day 8
[4] = 2 mg/kg, 12-17 yrs old, 2 mg/kg, Day 1
[5] = 2 mg/kg, 12-17 yrs old, 2 mg/kg, Day 8
[6] = 6 mg/kg, 6-11 yrs old, 6 mg/kg, Day 1
[7] = 6 mg/kg, 6-11 yrs old, 6 mg/kg, Day 8
[8] = 6 mg/kg, 12-17 yrs old, 6 mg/kg, Day 1
[9] = 6 mg/kg, 12-17 yrs old, 6 mg/kg, Day 8

Cmax [1, 2]: 0.039 µg/mL
AUC [1, 2]: 0.149 µg·h/mL
Tmax [1, 2]: 0.5 h
Cmax [1, 3]: 0.048 µg/mL
AUC [1, 3]: 0.24 µg·h/mL
Tmax [1, 3]: 0.5 h
half-life [1, 3]: 40 h
Cmax [1, 4]: 0.136 µg/mL
AUC [1, 4]: 0.391 µg·h/mL
Tmax [1, 4]: 1 h
Cmax [1, 5]: 0.279 µg/mL
AUC [1, 5]: 0.846 µg·h/mL
Tmax [1, 5]: 1 h
half-life [1, 5]: 40 h
Cmax [1, 6]: 0.323 µg/mL
AUC [1, 6]: 1.84 µg·h/mL
Tmax [1, 6]: 1.3 h
Cmax [1, 7]: 0.259 µg/mL
AUC [1, 7]: 0.956 µg·h/mL
Tmax [1, 7]: 0.8 h
half-life [1, 7]: 36 h
Cmax [1, 8]: 0.424 µg/mL
AUC [1, 8]: 1.8 µg·h/mL
Tmax [1, 8]: 1.8 h
Cmax [1, 9]: 0.486 µg/mL
AUC [1, 9]: 2.09 µg·h/mL
Tmax [1, 9]: 2 h
half-life [1, 9]: 42 h
solubility (Water solubility): > 350 mg/mL
SMILES: COCCCOc1cc(C[C@@H](C[C@H](N)[C@@H](O)C[C@H](C(=O)NCC(C)(C)C(N)=O)C(C)C)C(C)C)ccc1OC [Aliskiren, 2(S),4(S),5(S),7(S)—N-(3-amino-2,2-dimethyl-3-oxopropyl)-2,7-di(1-methylethyl)-4-hydroxy-5-amino-8-[4-methoxy-3-(3-methoxy-propoxy)phenyl]-octanamide]
